Results taken from patent US20060084704A1, “Methods and compositions for enhancing degradation of nuclear receptor transcription factors and uses thereof” (priority 2004, published 2006).
Several values for one entry are separate records, joined by “and”; a condition that tells them apart may be missing. Equal values may be shown once. Entries after “also recorded” stand apart in the source; their conditions may differ.

Columns and labels:
LNCaP tumor cells = experiment: In vivo LNCaP xenograft tumor growth in nude mice; conditions: JC9 100 mg/kg/day ip three times per week, 7 weeks
Procedure: In related in vivo studies, LNCap human prostate tumor cells are xenografted by subcutaneous injection (2×10^6 per site) into nude mice. Mice are subsequently treated by intraperitoneal injection of either the vehicle solution alone as a control or the test compounds (JC9)) at a dose of 100 milligrams per kilogram body weight, three times a week for 7 weeks. Tumor volume is measured twice a week over the next 7 weeks. […] Such results can be taken as a strong indication that the suppression of AR activity and the resulting reduction of tumor growth induced by AR-degrading compounds such as JC15 or by JC9, may be translated into a practical use for treating or preventing diseases and disorders related to AR activity, such as prostate and other cancers.
Two million LNCaP tumor cells were inoculated, subcutaneously, into the left flank of nude mice. In the experimental animals, the nude mice were give an intraperitoneal (ip) injection of compound JC9 at 100 mg/kg/day three times per week or with vehicle control only. After 7 weeks of treatment the tumors were excised, weighed and compared. The tumor weight in ratio of vehicle control to JC9 was 0.694 g:0.172 g.

sebaceous glands = experiment: Reduction of sebaceous glands in Fuzzy rats by topical cream; assay type: in vivo; conditions: once daily; for size of the sebaceous glandular lobe and duct: male Fuzzy rats, 8 weeks
From the text: In this example, the test compounds JC15 and JC9, which were shown in the previous examples to ameliorate the effects of the androgen receptor-activated pathway, specifically by inducing degradation of the androgen receptor, and to be effective in treating acne in human subjects, were used to reduce sebaceous glandular lobe size in an animal model. Effective reduction of sebaceous glands by topical treatment may be useful in treating skin conditions such as acne. Fuzzy rats were used in this animal model as described in Ye et al. (1997) Skin Pharmacol., 10:10288-10297, which is incorporated by reference in its entirety herein.
Topical creams were prepared as described in EXAMPLE 6. The test creams contained JC9 ([…]) or JC15 (1 micromolar); a control cream with only vehicle added was also prepared. The test or control creams were applied using a cotton swab to the dorsal skin of the animal, once daily, over a period of 8 weeks. Animals were then sacrificed and skin samples collected for microscopic examination. Commercial hair remover was applied to the dorsal surface of the euthanized animals. After 5 minutes, the hair remover and hairs were removed with a tissue. The area was thoroughly cleaned with 75% isopropyl alcohol. A 4-millimeter skin punch was used to remove skin tissue samples, which were incubated for 2 to 3 hours in a ethylenediaminetetraacetate (EDTA, 17 millimolar), sodium phosphate (0.1 molar, pH 7.4) solution at 37 degrees Celsius. The epidermis was carefully separated from the dermis and stored in 10% phosphate-buffered formalin. Prior to microscopic examination, the samples were mounted on glass slides. Areas of well-preserved glandular lobules were selected for microscopic imaging. Edges of the glandular lobes were traced and the areas of the traced lobes obtained with Image J software (National Institutes of Health).

acne vulgaris = experiment: Topical treatment of acne in human volunteers; assay type: in vivo; conditions: for Recovery Time: topical cream, per subject
Procedure: In this example, human subjects were successfully treated for acne by topical administration of a cream containing the compound JC15 or JC9, which were shown in the previous examples to ameliorate the effects of the androgen receptor-activated pathway, specifically by inducing degradation of the androgen receptor. A basic carrier formulation was prepared by mixing two solutions: (1) a water-based solution containing aristoflex avc, Osmocide, Tween 20, and water; and (2) an oil-based solution containing isopropyl myristate, coconut dienthanolamine, ethylparaben, isobutylparaben, methylparaben, and propylparaben. The test compounds (JC15 or JC9) were added to the cream to a final concentration of 1 to 2.5 micromolar, as needed.
Male and female human volunteers ranging in age from 15 years to 52 years were treated by topical application of the test compounds to the acne-affected skin. […] The results are given in Table 1, and a representative result (photo pictures) from one volunteer is depicted in FIG. 7.

ER beta = biological target: T1, ER beta (Homo sapiens, UniProt Q92731); experiment: Western blot of LNCaP cell lysates, ER beta; assay type: cell-based; conditions: 1 or 2 micromolar, 24 hours, presence or absence of DHT
T1 construct: endogenous in cells; host or cells: LNCaP
Procedure: (§1) Human prostate cancer LNCaP cells and T47D cells were plated at a density of 7×10^5 cells per 60 millimeter tissue culture dish in […] (RPMI) medium containing 10% FBS. The medium was changed to RPMI or DME medium containing 10% charcoal-stripped serum 24 hours later to deplete cellular androgens or estrogens. After another 24 hours, treatment with the test compounds began. The test dose of JC15 was 1 or 2 micromolar and the test does of JC9 was 1, 5 and 10 micromolar. LNCap cells also received dihydrotestosterone (DHT) (3 nanomolar). Control cells received a corresponding amount of the vehicle, dimethylsulfoxide (DMSO) (<0.04%) for an equivalent exposure time. Cells were incubated with JC15 for 24 or 48 hours, and were lysed in 250 microliters of 1×SDS/PAGE loading buffer. Approximately 40 micrograms of total cellular protein was loaded in each lane of a pre-cast gel (NuPAGE, Invitrogen). Protein separation and transfer were performed following the manufacturer's instructions.
(§2) For the prostate cell lysates, androgen receptor (AR) protein was visualized by incubating the resultant membranes with an anti-AR antibody (BD-PharMingen), followed by chemiluminescence detection (ECL Plus, Amersham). […] The resultant protein signals were quantified using densitometry and NIH ImageJ software.

retinoid X receptor = experiment: Western blot of LNCaP cell lysates, RXR; assay type: cell-based, human; conditions: 1 or 2 micromolar, 24 hours, presence or absence of DHT
Procedure: as §1, §2

T1 sequence (Q92731 whole entry): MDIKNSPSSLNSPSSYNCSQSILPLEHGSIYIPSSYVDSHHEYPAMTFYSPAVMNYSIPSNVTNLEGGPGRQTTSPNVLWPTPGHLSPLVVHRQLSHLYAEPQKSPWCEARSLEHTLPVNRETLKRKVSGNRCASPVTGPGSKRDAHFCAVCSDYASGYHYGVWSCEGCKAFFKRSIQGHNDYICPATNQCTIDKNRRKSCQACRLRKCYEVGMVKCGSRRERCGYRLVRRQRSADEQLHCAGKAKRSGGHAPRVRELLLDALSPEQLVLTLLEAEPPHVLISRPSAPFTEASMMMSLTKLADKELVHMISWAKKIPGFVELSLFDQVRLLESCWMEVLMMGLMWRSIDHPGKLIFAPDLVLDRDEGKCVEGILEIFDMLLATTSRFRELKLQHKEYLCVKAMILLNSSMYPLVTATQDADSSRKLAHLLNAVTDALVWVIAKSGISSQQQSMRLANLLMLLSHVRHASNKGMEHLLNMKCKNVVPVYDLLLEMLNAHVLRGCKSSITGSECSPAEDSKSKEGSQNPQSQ

| Structure (SMILES) | reduction in tumor size compared to vehicle control (LNCaP tumor cells) [%] | tumor weight (LNCaP tumor cells) [g] | time within which bands of sebaceous glands were reduced (sebaceous glands; JC9 25 micromolar cream, topical) | size of the sebaceous glandular lobe and duct (sebaceous glands; JC9 25 micromolar cream) | Recovery Time (acne vulgaris; 1 micromolar, four times a day) [week] | Recovery Time (acne vulgaris; 1 micromolar, twice a day) [weeks] | Recovery Time (acne vulgaris; 2.5 micromolar, twice a day) [week] | cellular concentration of ER beta (ER beta) | size of the sebaceous glandular lobe and duct (sebaceous glands; JC15 1 micromolar cream) | cellular concentration of retinoid X receptor (retinoid X receptor) | skin condition of forehead (photographs) (acne vulgaris; JC15 1 micromolar in carrier base, acne-affected volunteer, one month topical treatment) | Recovery Time (acne vulgaris; 1 micromolar, as often as needed, listed as ASCJ15) | Recovery Time (acne vulgaris; 1 micromolar, twice a day, listed as ASCJ15) |
| --- | --- | --- | --- | --- | --- | --- | --- | --- | --- | --- | --- | --- | --- |
| COc1ccc(C=CC(=O)C=C(O)C=Cc2ccc(OC)c(OC)c2)cc1OC [JC9, 5-hydroxy-1,7-bis(3,4-dimethoxyphenyl)-1,4,6-heptatrien-3-one] | 75 | 0.172 | 4-5 weeks | reduction in the size of the sebaceous glandular lobe and duct; also recorded: significantly reduced the size of lobe and ducts of sebaceous glands | 1 | 2 | 1 |  |  |  |  |  |  |
| CCOC(=O)CCC(C(=O)C=Cc1ccc(O)c(OC)c1)C(=O)C=Cc1ccc(O)c(OC)c1 (stereo not shown) [JC15, 7-(4-hydroxy-3-methoxyphenyl)-4-[3-(4-hydroxy-3-methoxyphenyl)acryloyl]-5-oxo-hept-6-enoic acid ethyl ester] |  |  |  |  |  |  |  | did not substantially affect | reduction in the size of the sebaceous glandular lobe and duct; also recorded: approximately equivalent to the decrease caused by castration | did not substantially affect | visible improvement to skin condition | 1 week weeks (2×) and 2 weeks | 2 weeks (2×) and 1 week weeks |
